Consider one compound from ChEMBL document CHEMBL5335861, “Novel ACC Inhibitors for Treating Acne” (ACS Med Chem Lett, 2024).

The assay has as its target Acetyl-CoA carboxylase 1 (Homo sapiens, UniProt Q13085). As to the kind of experiment: Inhibition of full length human recombinant ACC1 expressed in baculovirus infected Sf9 cells incubated for 18 hrs in presence of ATP by envision fluorescence reader analysis.

The IC50 is the concentration at which inhibition is half-maximal. Turning to `COc1cc(C(=O)N2CCC3(CC2)CC(=O)c2nc(C(C)(C)C)sc2C3)c2[nH]ccc2c1Cl`, the concentration for half-maximal inhibition (IC50) was 1.3 nM.
